Test results reported in patent US10076519B2 (CYTOKINETICS, INC., priority 2010, dated 2018).

System: rabbit skeletal myofibrils (fast skeletal myofibrils)
Assay: Activation of fast skeletal myofibrils (PUMA assay, PK/LDH-coupled ATPase at pCa25)
Assay type: biochemical
Outline: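 Detergent-washed rabbit psoas myofibrils (~90% fast fibres, calcium-regulated) assayed at calcium giving 25% of maximal ATPase rate (pCa25). ADP turnover coupled via pyruvate kinase/lactate dehydrogenase to NADH oxidation, read at 340 nm. Buffer 12 mM PIPES, 2 mM MgCl2, 1 mM DTT, pH 6.8; AC1.4 values derived.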

[1] = median AC1.4 class, procedure of Example 39
[2] = median AC1.4 reported as class, procedure of Example 39
[3] = AC1.4 determined according to the procedure of Example 39, reported as class symbols

| Compound | Mean AC1.4 [1] | also measured |
| --- | --- | --- |
| Fc1cccnc1C1(CNc2ccc(-c3nccs3)nn2)CCC1 [{[(3-fluoro(2-pyridyl))cyclobutyl]methyl}(6-(1,3-thiazol-2-yl)pyridazin-3-yl)amine] | B (B=1-10 uM) |  |
| Fc1cccnc1C1(CNc2ccc(-c3nc4cccnc4s3)nn2)CCC1 [{[(3-fluoro(2-pyridyl))cyclobutyl]methyl}(6-(1,3-thiazolino[5,4-b]pyridin-2-yl)pyridazin-3-yl)amine] | B (B=1-10 uM) |  |
| Fc1cccnc1C1(CNc2ccc(-c3ccccn3)nn2)CCC1 [{[(3-fluoro(2-pyridyl))cyclobutyl]methyl}(6-(2-pyridyl)pyridazin-3-yl)amine] | B (B=1-10 uM) |  |
| Fc1cccnc1C1(CNc2ccc(-c3nc4c(s3)CNC4)nn2)CCC1 [{[(3-fluoro(2-pyridyl))cyclobutyl]methyl}(6-(3-pyrrolino[3,4-d]1,3-thiazol-2-yl)pyridazin-3-yl)amine] | D (D=>20 uM) |  |
| Fc1cccnc1C1(CNc2ccc(-c3nc4c(s3)CNCC4)nn2)CCC1 [{[(3-fluoro(2-pyridyl))cyclobutyl]methyl}(6-(4,5,6,7-tetrahydro-1,3-thiazolo[5,4-c]pyridin-2-yl)pyridazin-3-yl)amine] |  | Mean AC1.4 [2]: D (D=>20 uM) |
| Fc1cccnc1C1(CNc2ccc(-c3ccccc3)nn2)CCC1 [{[(3-fluoro(2-pyridyl))cyclobutyl]methyl}(6-phenylpyridazin-3-yl)amine] | A (A=<1 uM) |  |
| Fc1cccnc1C1(CNc2ccc(-c3cnccn3)nn2)CCC1 [{[(3-fluoro(2-pyridyl))cyclobutyl]methyl}(6-pyrazin-2-ylpyridazin-3-yl)amine] | B (B=1-10 uM) |  |
| Fc1cccnc1C1(CNc2ccc(-c3cn[nH]c3)nn2)CCC1 [{[(3-fluoro(2-pyridyl))cyclobutyl]methyl}(6-pyrazol-4-ylpyridazin-3-yl)amine] |  | Mean AC1.4 [3]: C (C=10-20 uM) |
| Fc1cccnc1C1(CNc2ccc(-c3ccnnc3)nn2)CCC1 [{[(3-fluoro(2-pyridyl))cyclobutyl]methyl}(6-pyridazin-4-ylpyridazin-3-yl)amine] | D (D=>20 uM) |  |
| Fc1cccnc1C1(CNc2ccc(-c3ncccn3)nn2)CCC1 [{[(3-fluoro(2-pyridyl))cyclobutyl]methyl}(6-pyrimidin-2-ylpyridazin-3-yl)amine] | B (B=1-10 uM) |  |
| C=Cc1ccc(NCC2(c3ncccc3F)CCC2)nn1 [{[(3-fluoro(2-pyridyl))cyclobutyl]methyl}(6-vinylpyridazin-3-yl)amine] | D (D=>20 uM) |  |
| CC(C)Nc1n[nH]c2ccc(-c3ccc(NCC4(c5ncccc5F)CCC4)nn3)cc12 [{[(3-fluoro(2-pyridyl))cyclobutyl]methyl}(6-{3-[(methylethyl)amino](1H-indazol-5-yl)}pyridazin-3-yl)amine] |  | Mean AC1.4 [3]: A (A=<1 uM) |
| CN1CCN(Cc2cnc(-c3ccc(NCC4(c5ncccc5F)CCC4)nn3)s2)CC1 [{[(3-fluoro(2-pyridyl))cyclobutyl]methyl}(6-{5-[(4-methylpiperazinyl)methyl](1,3-thiazol-2-yl)}pyridazin-3-yl)amine] |  | Mean AC1.4 [2]: B (B=1-10 uM) |
| Cn1cc(-c2ccc(NCC3(c4ncccc4F)CCC3)nn2)cn1 [{[(3-fluoro(2-pyridyl))cyclobutyl]methyl}[6-(1-methylpyrazol-4-yl)pyridazin-3-yl]amine] |  | Mean AC1.4 [3]: D (D=>20 uM) |
| Cc1ncccc1-c1ccc(NCC2(c3ncccc3F)CCC2)nn1 [{[(3-fluoro(2-pyridyl))cyclobutyl]methyl}[6-(2-methyl(3-pyridyl))pyridazin-3-yl]amine] | C (C=10-20 uM) |  |
| Cc1ncc(-c2ccc(NCC3(c4ncccc4F)CCC3)nn2)cn1 [{[(3-fluoro(2-pyridyl))cyclobutyl]methyl}[6-(2-methylpyrimidin-5-yl)pyridazin-3-yl]amine] | D (D=>20 uM) |  |
| Fc1cccnc1C1(CNc2ccc(-c3cnc(N4CCNCC4)nc3)nn2)CCC1 [{[(3-fluoro(2-pyridyl))cyclobutyl]methyl}[6-(2-piperazinylpyrimidin-5-yl)pyridazin-3-yl]amine] | D (D=>20 uM) |  |

| Compound | Mean AC1.4 [1] | also measured |
| --- | --- | --- |
| Fc1cccnc1-c1ccc(NCC2(c3ncccc3F)CCC2)nn1 [{[(3-fluoro(2-pyridyl))cyclobutyl]methyl}[6-(3-fluoro(2-pyridyl))pyridazin-3-yl]amine] | B (B=1-10 uM) |  |
| Fc1cccnc1C1(CNc2ccc(-c3ccc(N4CCOCC4)cc3)nn2)CCC1 [{[(3-fluoro(2-pyridyl))cyclobutyl]methyl}[6-(4-morpholin-4-ylphenyl)pyridazin-3-yl]amine] | D (D=>20 uM) |  |
| COc1ccc2nc(-c3ccc(NCC4(c5ncccc5F)CCC4)nn3)sc2n1 [{[(3-fluoro(2-pyridyl))cyclobutyl]methyl}[6-(5-methoxy(1,3-thiazolino[5,4-b]pyridin-2-yl))pyridazin-3-yl]amine] | D (D=>20 uM) |  |
| COc1ccc(-c2ccc(NCC3(c4ncccc4F)CCC3)nn2)nc1 [{[(3-fluoro(2-pyridyl))cyclobutyl]methyl}[6-(5-methoxy(2-pyridyl))pyridazin-3-yl]amine] | B (B=1-10 uM) |  |
| Fc1cccnc1C1(CNc2ccc(-c3ncc(-c4cc[nH]n4)s3)nn2)CCC1 [{[(3-fluoro(2-pyridyl))cyclobutyl]methyl}[6-(5-pyrazol-3-yl(1,3-thiazol-2-yl))pyridazin-3-yl]amine] | A (A=<1 uM) |  |
| Fc1cccnc1C1(CNc2ccc(-c3ncc(-c4cn[nH]c4)s3)nn2)CCC1 [{[(3-fluoro(2-pyridyl))cyclobutyl]methyl}[6-(5-pyrazol-4-yl(1,3-thiazol-2-yl))pyridazin-3-yl]amine] | A (A=<1 uM) |  |
| Fc1cccnc1C1(CNc2ccc(-c3ncc(CN4CCN(CC(F)(F)F)CC4)s3)nn2)CCC1 [{[(3-fluoro(2-pyridyl))cyclobutyl]methyl}[6-(5-{[4-(2,2,2-trifluoroethyl)piperazinyl]meth-yl}(1,3-thiazol-2-yl))pyridazin-3-yl]amine] |  | Mean AC1.4 [2]: B (B=1-10 uM) |
| Fc1cccnc1C1(CNc2ccc(Cc3ccccc3)nn2)CCC1 [{[(3-fluoro(2-pyridyl))cyclobutyl]methyl}[6-benzylpyridazin-3-yl]amine] |  | Mean AC1.4 [2]: D (D=>20 uM) |
| CNc1n[nH]c2ccc(-c3ccc(NCC4(c5ncccc5F)CCC4)nn3)cc12 [{[(3-fluoro(2-pyridyl))cyclobutyl]methyl}{6-[3-(methylamino)(1H-indazol-5-yl)]pyridazin-3-yl}amine] |  | Mean AC1.4 [3]: A (A=<1 uM) |
| Fc1cccnc1C1(CNc2ccc(-c3ncc(CC(F)(F)F)s3)nn2)CCC1 [{[(3-fluoro(2-pyridyl))cyclobutyl]methyl}{6-[5-(2,2,2-trifluoroethyl)(1,3-thiazol-2-yl)]pyridazin-3-yl}amine] | B (B=1-10 uM) |  |
| Fc1cccnc1C1(CNc2ccc(-c3ncc(CN4CCOCC4)s3)nn2)CCC1 [{[(3-fluoro(2-pyridyl))cyclobutyl]methyl}{6-[5-(morpholin-4-ylmethyl)(1,3-thiazol-2-yl)]pyridazin-3-yl}amine] |  | Mean AC1.4 [2]: B (B=1-10 uM) |
| Fc1cccnc1C1(CNc2ccc(-c3ncc(CN4CCNCC4)s3)nn2)CCC1 [{[(3-fluoro(2-pyridyl))cyclobutyl]methyl}{6-[5-(piperazinylmethyl)(1,3-thiazol-2-yl)]pyridazin-3-yl}amine] |  | Mean AC1.4 [2]: B (B=1-10 uM) |
| COc1ncc(-c2ccc(NCC3(c4ccc(F)cc4)CCC3)nn2)cn1 [{[(4-fluorophenyl)cyclobutyl]meth-yl}[6-(2-methoxypyrimidin-5-yl)pyridazin-3-yl]amine] |  | Mean AC1.4 [3]: B (B=1-10 uM) |
| (2S)-2-amino-N-({2-[6-({[(3- fluoro(2- pyridyl))cyclobutyl]methyl}ami- no)pyridazin-3-yl](1,3-thiazol-5- yl)}methyl)-3-hydroxy-3- methylbutanamide | A (A=<1 uM) |  |
| [6-({[(3-fluoro(2- pyridyl))cyclobutyl]methyl}ami- no)pyridazin-3-yl]-N-[(5- oxopyrrolidin-3- yl)methyl]carboxamide |  | Mean AC1.4 [2]: D (D=>20 uM) |
| ethyl 2-[6-({[(3-fluoro-2- pyridyl)cyclobutyl]methyl}ami- no)pyridazin-3-yl]-1,3-thiazole-4- carboxylate | D (D=>20 uM) |  |
